Target: EGFR (Homo sapiens, UniProt P00533)
Assay: EGFR assay (cellular ELISA, NIH 3T3/C7 cells)
Type: cell-based
Design: expressed in transfected cells; host or cells: NIH 3T3/C7
Conditions: read-out: cell EGF IC50
Procedure, shortened: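 NIH 3T3/C7 cells expressing human EGFR, serum-starved (0.5% serum) ~40 h, treated with compound (1:200 of 10 mg/ml DMSO stock, 1% DMSO) then stimulated 5 min with 25 nM EGF. Lysate EGFR captured by antibody and phosphotyrosine detected by anti-Ptyr ELISA (OD 410 nm); % inhibition after negative-control subtraction.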

Chain of EGFR (P00533 25-1210): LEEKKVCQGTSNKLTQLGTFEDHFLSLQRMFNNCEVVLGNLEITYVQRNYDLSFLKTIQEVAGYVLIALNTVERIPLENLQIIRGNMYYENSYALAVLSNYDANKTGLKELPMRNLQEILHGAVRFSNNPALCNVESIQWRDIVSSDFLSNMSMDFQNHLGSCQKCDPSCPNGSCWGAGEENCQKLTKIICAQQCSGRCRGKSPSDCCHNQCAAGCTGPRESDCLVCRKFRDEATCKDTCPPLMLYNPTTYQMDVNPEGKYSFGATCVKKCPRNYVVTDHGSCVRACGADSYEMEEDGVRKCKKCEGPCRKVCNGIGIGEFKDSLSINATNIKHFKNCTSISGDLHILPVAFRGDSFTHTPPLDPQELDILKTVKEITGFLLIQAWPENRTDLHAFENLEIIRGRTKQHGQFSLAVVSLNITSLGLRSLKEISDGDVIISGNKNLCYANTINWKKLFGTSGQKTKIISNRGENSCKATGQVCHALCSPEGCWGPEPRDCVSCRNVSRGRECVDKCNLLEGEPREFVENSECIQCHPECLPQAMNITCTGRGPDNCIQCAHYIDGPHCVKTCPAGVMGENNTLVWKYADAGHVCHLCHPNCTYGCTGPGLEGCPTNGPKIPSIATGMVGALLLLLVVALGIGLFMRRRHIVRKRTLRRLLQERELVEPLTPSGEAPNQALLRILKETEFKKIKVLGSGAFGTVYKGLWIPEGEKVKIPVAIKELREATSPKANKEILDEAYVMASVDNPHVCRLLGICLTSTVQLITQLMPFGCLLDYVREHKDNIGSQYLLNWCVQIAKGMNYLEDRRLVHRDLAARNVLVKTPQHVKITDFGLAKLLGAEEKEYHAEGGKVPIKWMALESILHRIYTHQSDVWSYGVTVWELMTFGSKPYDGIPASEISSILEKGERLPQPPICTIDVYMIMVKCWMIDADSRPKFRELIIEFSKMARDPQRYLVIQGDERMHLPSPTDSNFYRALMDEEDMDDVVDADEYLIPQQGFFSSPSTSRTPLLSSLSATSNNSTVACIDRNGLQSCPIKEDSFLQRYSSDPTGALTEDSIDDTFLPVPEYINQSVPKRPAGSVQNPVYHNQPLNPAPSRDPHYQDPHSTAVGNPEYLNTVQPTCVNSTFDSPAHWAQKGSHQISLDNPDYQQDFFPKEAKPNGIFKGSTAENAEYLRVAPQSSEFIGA

SMILES | IC50
CCOC(=O)c1c(C)[nH]c(/C=C2\C(=O)Nc3ccc(Br)cc32)c1CCC(=O)O [Compound 114, 5-(5-Bromo-2-oxo-1,2-dihydroindol-3-ylidenemethyl)-4-(2-carboxyethyl)-2-methyl-1H-pyrrole-3-carboxylic acid ethyl ester] | > 100 µM
Cc1cc(CCC(=O)O)c(/C=C2\C(=O)Nc3ccc(Br)cc32)[nH]1 [Compound 116, 3-[2-(5-Bromo-2-oxo-1,2-dihydroindol-3-ylidenemethyl)-5-methyl-1H-pyrrol-3-yl]-propionic acid] | > 100 µM
COc1c(C(C)C)cc(/C=C2/C(=O)Nc3ccccc32)cc1C(C)C [Example 1, 3-(3,5-Diisopropyl-4-methoxybenzylidene)-1,3-dihydroindol-2-one] | 45.7 µM
COc1c(C(C)C)cc(/C=C2/C(=O)Nc3ccc(Cl)cc32)cc1C(C)C [Example 2, 5-Chloro-3-(3,5-diisopropyl-4-methoxybenzylidene)-1,3-dihydroindol-2-one] | > 100 µM
O=C1Nc2ccc(N=Cc3cc4ccccc4[nH]3)cc2C1=Cc1cc2ccccc2[nH]1 [Example 171, 3-(1H-indol-2-ylmethylene)-5-[(1H-indol-2-ylmethylene)-amino]-1,3-dihydroindol-2-one] | > 100 µM
NS(=O)(=O)c1ccc2c(c1)/C(=C/c1c[nH]c3ccccc13)C(=O)N2 [Example 172, 3-(1H-Indol-3-ylmethylene)-2-oxo-2,3-dihydro-1H-indole-5-sulfonic acid amide] | > 100 µM
CNS(=O)(=O)c1ccc2c(c1)/C(=C/c1cc3ccccc3[nH]1)C(=O)N2 [Example 173, 3-(1H-Indol-2-ylmethylene)-2-oxo-2,3-dihydro-1H-indole-5-sulfonic acid methylamide] | > 100 µM
O=C1Nc2ccc(C(=O)O)cc2/C1=C/c1c[nH]c2ccccc12 [Example 174, 3-(1H-Indol-3-ylmethylene)-2-oxo-2,3-dihydro-1H-indole-5-carboxylic acid] | > 100 µM
O=C1Nc2ccc(C(=O)O)cc2/C1=C/c1ccc2[nH]ccc2c1 [Example 177, 3-(1H-Indol-5-ylmethylene)-2-oxo-2,3-dihydro-1H-indole-5-carboxylic acid] | > 100 µM
Nc1ccc2c(c1)/C(=C/c1ccc3[nH]ccc3c1)C(=O)N2 [Example 179, 5-Amino-3-(1H-indol-5-ylmethylene)-1,3-dihydro-indol-2-one] | > 100 µM
Cc1c(/C=C2\C(=O)Nc3ccc(N)cc32)[nH]c2ccccc12 [Example 180, 5-Amino-3-(3-methyl-1H-indol-2-ylmethylene)-1,3-dihydroindol-2-one] | > 100 µM
Cc1[nH]c2ccccc2c1/C=C1\C(=O)Nc2ccc(C(=O)O)cc21 [Example 182, 3-(2-Methyl-1H-indol-3-ylmethylene)-2-oxo-2,3-dihydro-1H-indole-5-carboxylic acid] | > 100 µM
Cc1[nH]c2ccccc2c1/C=C1\C(=O)Nc2ccc(N)cc21 [Example 187, 5-Amino-3-(2-methyl-1H-indol-3-ylmethylene)-1,3-dihydroindol-2-one] | > 100 µM
O=C(O)CCc1c(/C=C2\C(=O)Nc3ccc(Cl)cc32)[nH]c2c1CCCC2 [Example 191, 3-[2-(5-Chloro-2-oxo-1,2-dihydroindol-3-ylidenemethyl)-4,5,6,7-tetrahydro-1H-indol-3-yl]-propionic acid] | > 100 µM
O=C(O)CCc1c(/C=C2\C(=O)Nc3cc(Cl)ccc32)[nH]c2c1CCCC2 [Example 195, 3-[2-(6-Chloro-2-oxo-1,2-dihydroindol-3-ylidenemethyl)-4,5,6,7-tetrahydro-1H-indol-3-yl]-propionic acid] | > 100 µM
CN(C)C(=O)CCc1c(/C=C2\C(=O)Nc3ccccc32)[nH]c2c1CCCC2 [Example 197, N,N-Dimethyl-3-[2-(2-oxo-1,2-dihydroindol-3-ylidenemethyl)-4,5,6,7-tetrahydro-1H-indol-3-yl]-propionamide] | > 100 µM
CN(C)CCCc1c(/C=C2\C(=O)Nc3ccccc32)[nH]c2c1CCCC2 [Example 198, 3-[3-(3-Dimethylaminopropyl)-4,5,6,7-tetrahydro-1H-indol-2-ylmethylene]-1,3-dihydroindol-2-one] | > 100 µM
NC(=O)CCc1c(/C=C2\C(=O)Nc3ccccc32)[nH]c2c1CCCC2 [Example 199, 3-[2-(2-Oxo-1,2-dihydroindol-3-ylidenemethyl)-4,5,6,7-tetrahydro-1H-indol-3-yl]-propionamide] | > 100 µM
O=C1Nc2ccccc2/C1=C/c1[nH]c2c(c1CCC(=O)N1CCOCC1)CCCC2 [Example 200, 3-[3-(3-Morpholin-4-yl-3-oxopropyl)-4,5,6,7-tetrahydro-1H-indol-2-ylmethylene]-1,3-dihydroindol-2-one] | > 100 µM
CNC(=O)CCc1c(/C=C2\C(=O)Nc3ccccc32)[nH]c2c1CCCC2 [Example 201, N-Methyl-3-[2-(2-oxo-1,2-dihydroindol-3-ylidenemethyl)-4,5,6,7-tetrahydro-1H-indol-3-yl]-propionamide] | > 100 µM
O=C(CCc1c(/C=C2\C(=O)Nc3ccccc32)[nH]c2c1CCCC2)NCCN1CCOCC1 [Example 202, N-(2-Morpholin-4-ylethyl)-3-[2-(2-oxo-1,2-dihydroindol-3-ylidenemethyl)-4,5,6,7-tetrahydro-1H-indol-3-yl]-propionamide] | > 100 µM
O=C(O)CCc1c(/C=C2\C(=O)Nc3ncccc32)[nH]c2c1CCCC2 [Example 203, 3-[2-(2-Oxo-1,2-dihydropyrrolo[2,3-b]pyridin-3-ylidenemethyl)-4,5,6,7-tetrahydro-1H-indol-3-yl]-propionic acid] | > 12.5 µM
COc1cccc(-c2ccc3c(c2)NC(=O)/C3=C\c2[nH]c3c(c2CCC(=O)O)CCCC3)c1 [Example 204, 3-{2-[6-(3-Methoxyphenyl)-2-oxo-1,2-dihydro-indol-3-ylidenemethyl]-4,5,6,7-tetrahydro-1H-indol-3-yl}-propionic acid] | > 100 µM
CC(C)NS(=O)(=O)c1ccc2c(c1)C(=Cc1[nH]c3c(c1CCC(=O)O)CCCC3)C(=O)N2 [Example 208, 3-[2-(5-Isopropylaminosulfonyl-2-oxo-1,2-dihydroindol-3-ylidenemethyl)-4,5,6,7-tetrahydro-1H-indol-3-yl]-propionic acid] | > 100 µM
O=C(O)CCc1ccccc1/C=C1/C(=O)Nc2ccccc21 [Example 214, 3-[2-(2-Oxo-1,2-dihydroindol-3-ylidenemethyl)-phenyl]-propionic acid] | > 100 µM
Cc1c[nH]c(/C=C2\C(=O)Nc3ccccc32)c1CCC(=O)O [Example 215, 3-[4-Methyl-2-(2-oxo-1,2-dihydroindol-3-ylidenemethyl)-1H-pyrrol-3-yl]-propionic acid] | > 100 µM
Cc1c[nH]c(/C=C2\C(=O)Nc3ccc(Cl)cc32)c1CCC(=O)O [Example 216, 3-[2-(5-Chloro-2-oxo-1,2-dihydroindol-3-ylidenemethyl)-4-methyl-1H-pyrrol-3-yl]-propionic acid] | > 100 µM
COc1ccc2c(c1)NC(=O)/C2=C\c1[nH]cc(C)c1CCC(=O)O [Example 217, 3-[2-(6-Methoxy-2-oxo-1,2-dihydroindol-3-ylidenemethyl)-4-methyl-1H-pyrrol-3-yl]-propionic acid] | > 100 µM
Cc1c[nH]c(C=C2C(=O)Nc3cc(Cl)ccc32)c1CCC(=O)O [Example 219, 3-[2-(6-Chloro-2-oxo-1,2-dihydroindol-3-ylidenemethyl)-4-methyl-1H-pyrrol-3-yl]-propionic acid] | > 100 µM
COc1ccc2c(c1)/C(=C/c1[nH]cc(C)c1CCC(=O)O)C(=O)N2 [Example 222, 3-[2-(5-Methoxy-2-oxo-1,2-dihydroindol-3-ylidenemethyl)-4-methyl-1H-pyrrol-3-yl]-propionic acid] | > 100 µM

— patent US6855730B2, “3-methylidenyl-2-indolinone modulators of protein kinase” (Sugen, Inc., priority 1998, dated 2005)
